# Results published in patent publication US20260224462A1, “ANTI-AGING COMPOSITION” (MITSUBISHI CORPORATION LIFE SCIENCES LIMITED, priority 2023, published 2026).
# Key:
# Format in all cases: cell-based
# Normal human fibroblasts [1] = assay: Suppression of decrease in proliferation capability of aging-induced normal human fibroblasts (MTT assay); settings: 50 μM or 100 μM, aging induced with 0.5 mM hydrogen peroxide; compared with only aging induction and with 100 μM reduced glutathione; p<0.005; FIG. 1
# Description: Normal human fibroblasts were seeded in 96 well plates (3.0×10^3 cells/well, N=3) and precultured for 24 hours (5% CO2, 37° C.). As a medium, MEM-α, nucleosides medium (Gibco) containing fetal bovine serum (10% of serum-free medium was externally added) was used. Thereafter, the wells were washed once with PBS (−), then replaced with MEM-α, nucleoside medium containing fetal bovine serum (5% of serum-free medium was externally added) dissolved so that the final concentration of Sample 1 or Sample 2 was 50 μM or 100 μM, and further incubated for 30 minutes. Thereafter, fibroblasts were treated with a medium adjusted so that the final concentration of hydrogen peroxide was 0.5 mM to induce aging. Thereafter, an MTT assay was performed according to a conventional method, and the survival rate of fibroblasts was calculated as a relative value when the survival rate of cells in the test section in which neither treatment nor aging induction was performed was taken as 100.
# For comparison, a test section in which only aging induction was performed and a test section in which reduced glutathione was 100 μM was set instead of Sample 1. […]
# Normal human fibroblasts [2] = assay: Suppression of decrease in hyaluronic acid production capability due to aging induction, fibroblasts (ELISA); settings: 50 μM or 100 μM, 0.5 mM hydrogen peroxide; for amount of hyaluronic acid compared with test section of only aging induction: 24 h, ELISA, p<0.05, FIG. 3; for hyaluronic acid production capability compared with test sections that did not induce aging: no significant difference between the two groups, FIG. 3
# Description: Normal human fibroblasts were seeded in 24 well plates (8.0×10^4 cells/well, N=3) and precultured for 24 hours (5% CO2, 37° C.). As a medium, MEM-α, nucleosides medium (Gibco) containing fetal bovine serum (10% of serum-free medium was externally added) was used. Thereafter, the wells were washed once with PBS (−), then replaced with MEM-α, nucleoside medium containing fetal bovine serum (5% of serum-free medium was externally added) dissolved so that the final concentration of Sample 1 or Sample 2 was 50 μM or 100 μM, and further incubated for 30 minutes. Thereafter, fibroblasts were treated with a medium adjusted so that the final concentration of hydrogen peroxide was 0.5 mM to induce aging. Thereafter, the culture medium was changed to MEM-α, nucleoside medium containing fetal bovine serum (5% of serum-free culture medium was externally added) and incubated for 24 hours, and then the amount of hyaluronic acid was quantified by ELISA using a hyaluronic acid quantification kit (Cosmo Bio Inc.).
# The hyaluronic acid production amount in each test section was shown as a relative value when the hyaluronic acid production amount in each sample and the test section in which aging induction was not performed was taken as 100. Regarding the hyaluronic acid production amount, a significant difference test (t-test, two-tailed) between the two groups of the test section for Sample 1 and the test section for which only the aging induction was performed respectively, and a significant difference test between the test section for Sample 2 and the test section for which only the aging induction was performed were each performed, and “*(p<0.05)” was marked for those in which a significant difference was recognized.
# B16 mouse melanoma cells = assay: Melanin production suppression test in cultured cells; settings: FIG. 5; for melanin production amount compared with the reference sample (absorbance at 405 nm): 0.02 mM or 0.05 mM at melanin induction with α-MSH 200 nM, p<0.01; for concentration needed for melanin production suppressing effect compared with kojic acid (1 mM) and reduced glutathione (3 mM): 0.02 mM or 0.05 mM of sample
# Description: B16 mouse melanoma cells were seeded in a 6 well plate (2.0×10^4 cells/well), and cultured for 24 hours in D-MEM medium to which 5% fetal bovine serum was added with respect to the medium (5% CO2, 37° C.). […] The obtained pellets were washed twice with PBS (−), 150 μL of a 1 M sodium hydroxide solution was then added, and the mixture was treated at 100° C. for 10 minutes to dissolve the pellets, thereby preparing a reference sample. […] One hundred μL of a sample of each test section was added to a 96 well plate, and the absorbance at 405 nm was measured with a microplate reader (n=3). […] The significant difference test was performed on the measured value of the reference sample by the Dunnett method (*p<0.05, **p<0.01.).
# [3] = test system: Normal human epidermal keratinocytes; assay: Suppression of decrease in proliferation capability of aging-induced normal human epidermal keratinocytes (MTT assay); settings: 50 μM or 100 μM, aging induced with 0.5 mM hydrogen peroxide; compared with only aging induction; FIG. 2
# Description: Normal human epidermal keratinocytes were seeded in 96 well plates (1.0×10^4 cells/well, N=3) and precultured for 24 hours (5% CO2, 37° C.). As a medium, a commercially available keratinocyte growth medium (PromoCell) was used. Thereafter, the wells were washed once with PBS (−), then replaced with a keratinocyte growth medium dissolved so that the final concentration of Sample 1 was 50 μM or 100 μM, and further incubated for 30 minutes. […] Thereafter, an MTT assay was performed according to a conventional method, and the survival rate of normal human epidermal keratinocytes was calculated as a relative value when the survival rate of cells in a test section in which neither the treatment with oxidized glutathione trisulfide nor the aging induction was performed was taken as 100. For comparison, a test section in which only aging induction was performed without treatment with oxidized glutathione trisulfide was set. Regarding the survival rate, a significant difference test (t-test, two-tailed) between the two groups of the test section of Sample 1 and the test section in which only aging induction was performed was performed respectively.
# [4] = test system: Normal human epidermal keratinocytes; assay: Suppression of decrease in hyaluronic acid production capability due to aging induction, keratinocytes (ELISA); settings: 50 μM, 0.5 mM hydrogen peroxide
# Description: Normal human epidermal keratinocytes were seeded in 24 well plates (1.0×10^5 cells/well, N=3) and precultured for 24 hours (5% CO2, 37° C.). As a medium, a commercially available keratinocyte growth medium (PromoCell) was used. Thereafter, the wells were washed once with PBS (−), then replaced with a keratinocyte growth medium dissolved so that the final concentration of Sample 1 was 50 μM, and further incubated for 30 minutes. Thereafter, normal human epidermal keratinocytes were treated with a medium adjusted to have a final concentration of hydrogen peroxide of 0.5 mM to induce aging. Thereafter, the medium was replaced with a new keratinocyte growth medium and incubated for 24 hours, and then the amount of hyaluronic acid was quantified by an ELISA method using a hyaluronic acid quantification kit (Cosmo Bio). For comparison, a test section not treated with oxidized glutathione trisulfide was provided.
# The hyaluronic acid production amount in each of the test sections was shown as a relative value when the hyaluronic acid production amount in the test section in which neither oxidized glutathione trisulfide treatment nor aging induction was performed was taken as 100. […]
# [5] = biological target: T1, tyrosinase derived from B16 mouse melanoma cells (Mus musculus, UniProt P11344); assay: Tyrosinase activity suppression test; settings: 0.05 mM or 0.1 mM at melanin induction; L-DOPA, absorbance at 490 nm corrected by protein concentration; FIG. 6
# T1 construct: a protein extract containing tyrosinase derived from B16 mouse melanoma cells; endogenous in cells; host or cells: B16 mouse melanoma cells, alpha-MSH induced
# T1 sequence (P11344 19-533): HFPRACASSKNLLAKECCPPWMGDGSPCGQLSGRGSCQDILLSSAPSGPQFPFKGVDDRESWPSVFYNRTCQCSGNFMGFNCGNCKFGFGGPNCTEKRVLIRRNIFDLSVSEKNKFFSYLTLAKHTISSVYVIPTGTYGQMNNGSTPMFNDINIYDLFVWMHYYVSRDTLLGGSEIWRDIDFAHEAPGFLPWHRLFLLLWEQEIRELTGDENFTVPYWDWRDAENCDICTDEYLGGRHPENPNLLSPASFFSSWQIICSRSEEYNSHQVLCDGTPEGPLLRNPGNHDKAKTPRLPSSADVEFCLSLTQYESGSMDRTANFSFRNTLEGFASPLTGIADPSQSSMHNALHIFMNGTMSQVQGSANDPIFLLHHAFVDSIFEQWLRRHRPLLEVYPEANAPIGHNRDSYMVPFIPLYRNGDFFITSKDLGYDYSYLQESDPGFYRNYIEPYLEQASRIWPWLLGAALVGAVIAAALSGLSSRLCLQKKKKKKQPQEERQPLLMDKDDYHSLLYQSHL
# Description: The tyrosinase activity inhibitory effect can be known by comparing the value of the absorbance at 490 nm corrected by the protein concentration measured by adding the test substance at the time of melanin induction and the same operation with the value of the test section to which the test substance is not added.
# B16 mouse melanoma cells were seeded in a 6 well plate (2.0×10^4 cells/well), and cultured for 24 hours in D-MEM medium to which 5% fetal bovine serum was added with respect to the medium (5% CO2, 37° C.). Thereafter, α-MSH (final concentration: 200 nM) was added, and the cells were cultured in a serum-free D-MEM medium for 24 hours to induce melanin. […] The protein concentration of the obtained sample was measured by the BCA method.
# The same operation was performed except that melanin induction was not performed, and a reference sample was obtained. […] Fifty μL of a sample of each test section was placed in a 96 well plate (n=3), 50 μL of 0.8 mg/mL L-DOPA was added, the mixture was reacted at 37° C. for 1 hour, and then the absorbance at 490 nm was measured with a microplate reader. The absorbance was corrected by the protein concentration, and the relative value of each test section was calculated when the measured value of the reference sample was 100. […]
smiles,measurement,setting,value
"CC(=O)N[C@@H](CSSSC[C@H](NC(C)=O)C(=O)O)C(=O)O [Sample 2, oxidized NAC trisulfide]","cell proliferation rate (survival rate of fibroblasts, MTT, relative value)",Normal human fibroblasts [1],significant cell proliferation rate
same,amount of hyaluronic acid compared with test section of only aging induction,Normal human fibroblasts [2],significantly higher
same,hyaluronic acid production capability compared with test sections that did not induce aging,Normal human fibroblasts [2],The same result was obtained
same,melanin production amount compared with the reference sample (absorbance at 405 nm),B16 mouse melanoma cells,significantly low
same,concentration needed for melanin production suppressing effect compared with kojic acid (1 mM) and reduced glutathione (3 mM),B16 mouse melanoma cells; α-MSH 200 nM,melanin production can be suppressed at a lower concentration
"N[C@@H](CCC(=O)N[C@@H](CS)C(=O)NCC(=O)O)C(=O)O [reduced glutathione, reference compound]",melanin production suppressing effect compared with 0.02 mM test section of Sample 1,"B16 mouse melanoma cells; reduced glutathione final concentration 3 mM, α-MSH 200 nM",same melanin production suppressing effect
"N[C@@H](CCC(=O)N[C@@H](CSSSC[C@H](NC(=O)CC[C@H](N)C(=O)O)C(=O)NCC(=O)O)C(=O)NCC(=O)O)C(=O)O [Sample 1, oxidized glutathione trisulfide]","cell proliferation rate (survival rate of fibroblasts, MTT, relative value)",Normal human fibroblasts [1],significant cell proliferation rate
same,"cell proliferation rate (survival rate of keratinocytes, MTT, relative value)",[3],significant cell proliferation rate
same,amount of hyaluronic acid compared with test section of only aging induction,Normal human fibroblasts [2],significantly higher
same,hyaluronic acid production capability compared with test sections that did not induce aging,Normal human fibroblasts [2],same hyaluronic acid production capability
same,amount of hyaluronic acid compared with test section of only aging induction,"[4]; 24 h, ELISA, p<0.05, FIG. 4",significantly higher
same,hyaluronic acid production capability compared with control group in which aging is not induced,"[4]; no significant difference between the two groups, FIG. 4",same hyaluronic acid production capability
same,melanin production amount compared with the reference sample (absorbance at 405 nm),B16 mouse melanoma cells,significantly low
same,concentration needed for melanin production suppressing effect compared with kojic acid (1 mM) and reduced glutathione (3 mM),B16 mouse melanoma cells; α-MSH 200 nM,exhibited a melanin production suppressing effect at a lower concentration
same,tyrosinase activity compared with test section in which only melanin induction was performed,[5],significantly lower
same,tyrosinase activity compared with the reference sample (no melanin induction),[5],same degree of tyrosinase activity as the reference sample
